The results in this text go back to PubChem BioAssay (NCI).

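Protocol summary: plate cells (96-well), add compound at 5 concentrations, incubate 48 h, interpolate endpoints linearly. GI50 is the concentration that inhibits growth by half. TGI denotes the concentration required for complete inhibition of growth.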 Where only a bound is given, the exact number is not on record here.

What all share (assay): DTP human tumour cell line panel, 48 h
For experiment [1], the system named is CCRF-CEM leukemia.
The subject of experiment [2] is EKVX NSCLC.
The test system of experiment [3] is IGROV1 ovarian.
Experiment [4] relates to MDA-MB-435.
The subject of experiment [5] is MOLT-4 leukemia.
Experiment [6] has as its system NCI-H226 lung.
In experiment [7] the test system is PC-3 prostate.
Experiment [8] relates to SF-295 CNS.
The test system of experiment [9] is TK-10 renal.
For experiment [10], the system named is U251 CNS.

`COC(=O)c1cc(O)c2c(c1C(=O)OC)C[C@H]1[C@@H]3CC=C4C[C@@H](O)CC[C@]4(C)[C@H]3CC[C@]21C`: the GI50 in [1] was 1.71 µM; in [2] it was 3.29 µM; in [3] it was 3.89 µM; in experiment [4], 3.01 µM; in experiment [5], 2.22 µM; in experiment [6] it was 3.78 µM. In addition, the GI50 was 2.51 µM in experiment [7], 1.72 µM in experiment [8], 3.83 µM in experiment [9] and 1.93 µM in experiment [10]. In addition, the TGI came to 4.99 µM in [1]; 21.7 µM in experiment [2]; 15.9 µM in experiment [3]; 20.6 µM in [4]; 5.56 µM in [5]; 20 µM in [6]. The TGI in [7] turned out to be 13.3 µM; in [8], 4.4 µM; in experiment [9], 11.8 µM; in [10], 7.82 µM.

Consider `Cc1nc(N2CCC3(CC2)CO[C@@H](C)[C@H]3N)c(CO)nc1Sc1ccnc(N)c1Cl`, for which the GI50 is above 91.3 µM in experiment [1]; 0.449 µM in experiment [2]; 0.629 µM in experiment [3]; above 100 µM in experiment [4]; above 100 µM in experiment [5]; 2.14 µM in experiment [6]. In addition, the GI50 in experiment [7] was above 100 µM; in experiment [8] it was 26.6 µM; in experiment [9], 0.336 µM; in experiment [10], 3.92 µM. Also, the TGI in experiment [1], in [2], in experiment [3], in experiment [4], in experiment [5] and in experiment [6] was above 100 µM each time. In addition, the concentration for total growth inhibition (TGI) in experiment [7], in experiment [8], in [9] and in experiment [10] was above 100 µM each time.

Consider `CCCCCCCCCCCCCCCCCC(=O)OCC(COC(=O)CCCN)OC(=O)CCCN` (stereo not given), for which the TGI was above 100 µM in experiment [1]; 53.9 µM in experiment [2]; 8.01 µM in [3]; 33.2 µM in experiment [4]; 70.8 µM in experiment [5]; 44.4 µM in experiment [6]. Also, the TGI in experiment [7] was found to be 35.5 µM; in [8], 35.1 µM; in experiment [9] it was 36.7 µM; in experiment [10], 40.8 µM.

Turning to `CCOC(=O)CC1C(COC(=O)NC)OC(n2cnc3c(NC(=O)Nc4ccccc4)ncnc32)C1O[Si](C)(C)C(C)(C)C` (stereo not given), the GI50 in experiment [1] is 3.23 µM; in experiment [2], 3.39 µM; in experiment [3], 13.7 µM; in experiment [4] it was 3.26 µM; in experiment [5], 1.99 µM; in experiment [6], 11.8 µM. For the same molecule, the GI50 was 2.87 µM in [7], 2.83 µM in experiment [8], 10.7 µM in experiment [9] and 7.57 µM in [10]. For the same molecule, the TGI in experiment [1] is above 100 µM; in [2], above 100 µM; in experiment [3], above 100 µM; in experiment [4] it was above 100 µM; in [5] it was 5.74 µM; in experiment [6], 36.6 µM. Further, the TGI in [7] came to 25.4 µM; in experiment [8], 15.1 µM; in [9], 50 µM; in experiment [10], 32.3 µM.

For the molecule `CC(C)(C)CC(C)(C)NCc1cc(C(C)(C)C)cc(CNC(C)(C)CC(C)(C)C)c1O`, the GI50 is 4.18 µM in experiment [1]; 2.78 µM in [2]; 3.93 µM in experiment [3]; 2.56 µM in experiment [4]; 2.93 µM in experiment [5]; 2.25 µM in experiment [6]. Moreover, the GI50 in [7] is 2.86 µM; in [8], 3.23 µM; in experiment [9], 2.55 µM; in [10], 2.86 µM. Also, the TGI in experiment [1] is 34.9 µM; in [2], 14.1 µM; in [3] it was 15.9 µM; in experiment [4], 10.9 µM; in experiment [5], 9.34 µM; in [6], 8.89 µM. Besides, the TGI was found to be 12.2 µM in experiment [7], 11.7 µM in experiment [8], 5.87 µM in [9] and 12.2 µM in experiment [10].

As to `O=Cc1ccc(-c2ccc(-c3nc4ccccc4o3)cc2)o1`, the GI50 is above 100 µM in experiment [1]; 38.7 µM in experiment [2]; 38.6 µM in [3]; 33.1 µM in experiment [4]; 52 µM in experiment [5]; 17.9 µM in experiment [6]. For the same molecule, the GI50 in experiment [7] is 30.3 µM; in experiment [8], 28 µM; in [9] it was 32.5 µM; in [10] it was 25.4 µM. Also, the TGI in experiment [1], in experiment [2], in experiment [3], in [4], in [5] and in experiment [6] was above 100 µM throughout. Further, the TGI in experiment [7] is above 100 µM; in experiment [8] it was 85 µM; in experiment [9] it was 74.8 µM; in experiment [10], 88.1 µM.

As for `Cc1cccc(C)c1NC(=O)Nc1ccc(S(N)(=O)=O)cc1`, the TGI in experiment [1], in [2], in experiment [3], in experiment [4], in [5] and in experiment [6] was above 100 µM in each case. The TGI in experiment [7], in experiment [8], in experiment [9] and in [10] was above 100 µM each time.

As for `COc1ccccc1CNCCCN1C(=O)c2ccc3c4c(ccc(c24)C1=O)C(=O)N(CCCCNCCCN)C3=O`, the GI50 in [1] is 0.752 µM; in experiment [2] it was 2 µM; in [3] it was 1.43 µM; in experiment [4], 0.574 µM; in experiment [5], 0.389 µM; in experiment [6], 2.26 µM. In addition, the GI50 was 2.29 µM in experiment [7], 3.65 µM in [8], 2.62 µM in experiment [9] and 0.831 µM in [10]. Besides, the TGI in experiment [1] is 5.17 µM; in experiment [2], 5.75 µM; in [3] it was 3.86 µM; in experiment [4] it was 1.16 µM; in experiment [5] it was 1.7 µM; in experiment [6], 9.24 µM. The TGI was 9.82 µM in experiment [7], 17.4 µM in experiment [8], 8.07 µM in experiment [9] and 2.28 µM in experiment [10].
